Experimental data reported in article PMC8333425, “Discovery of a dual Ras and ARF6 inhibitor from a GPCR endocytosis screen” (Nature Communications, 2021).
Several values for one entry are separate records, joined by “and”; a condition that tells them apart may be missing. Equal values may be shown once.

Tested on: Akt activation by EGFR
Assay: Western blot of EGFR-mediated Akt activation
Type: cell-based, human
Conditions: for AKT activation, EGFR (p-Akt over Akt): individual experiments
Description: HEK293SL cells (10^5 cells per well) were seeded in a poly-L-lysine-coated six-well plate and transiently transfected with 3 μg Flag-AT1R, HA-B2R or HA-β2AR and/or 500 ng Flag-MEK1-WT, Flag-MEK1-DD, Flag-BRAF-WT, Flag-BRAF-V600E, Flag-K-Ras-WT, Flag-K-Ras-G12V, HA-ARF6-WT, or HA-ARF6-T27N. Gαq/11 KO and βarr1/2 KO cells were seeded onto 100 mm dishes at a density of 10^6 cells per dish. Next day, cells were transfected with 3 μg AT1R alone or along with 500 ng of β-arrestin2 using PEI. After 18 h of transfection, cells were detached and re-seeded onto poly-L-lysine coated 12-well plates (~1.5–2 × 10^5cells/well) for subsequent experiments. Forty-eight hours post transfection, in a 37 °C water bath, cells were serum-starved for 30 min, pretreated with DMSO (0.1%) or compound 21/Rasarfin (50 µM or at indicated concentrations) for 30 min, then stimulated or not with the indicated ligand [AngII (1 µM), BK (1 µM), Iso (10 µM) or EGF (100 ng/ml)] at indicated times. Cells were put on ice, washed with PBS and solubilized in 2x laemmli buffer (250 mM Tris–HCl pH 6.8, 2% SDS (w/v), 10% glycerol (v/v), 0.01% bromophenol blue (w/v) and 5% β-mercaptoethanol (v/v)) by heating at 65 °C for 15 min. Lysates were resolved on 10 or 14% SDS-PAGE, transferred to nitrocellulose membranes and immunoblotted for p-ERK1/2, ERK1/2, p-Akt, Akt, HA, Myc, β-actin or FLAG. ImageLab 5.2 software was used to quantify the digital blots as fold of the phosphorylated protein over total protein, which were then normalized as indicated in the figure legends. Uncropped immunoblots are provided in the Source Data file.

**Q.** `CC(C)C(=O)N1CCN(c2ccc(NC(=O)c3cc4ccccc4o3)cc2Cl)CC1` [Compound 21] was tested. Which IC50 (Homo sapiens, read-out: potency for inhibition of EGFR-mediated Akt (western blot)) did it give?
**A.** 4 to 5 µM

**Q.** And the “AKT activation, EGFR (p-Akt over Akt)” value (Log [Comp 21] (M) -4.3)?
**A.** 12.9009 percent compared to DMSO and 28.9803 percent compared to DMSO and 32.6041 percent compared to DMSO

**Q.** And the “AKT activation, EGFR (p-Akt over Akt)” value (Log [Comp 21] (M) -5)?
**A.** 21.4684 percent compared to DMSO and 57.877 percent compared to DMSO and 33.8957 percent compared to DMSO

**Q.** What about the “AKT activation, EGFR (p-Akt over Akt)” value (Log [Comp 21] (M) -5.3) of the same compound?
**A.** 42.6879 percent compared to DMSO and 80.2621 percent compared to DMSO and 48.2006 percent compared to DMSO

**Q.** And the “AKT activation, EGFR (p-Akt over Akt)” value (Log [Comp 21] (M) -6)?
**A.** 93.9059 percent compared to DMSO and 99.6926 percent compared to DMSO and 89.9021 percent compared to DMSO

**Q.** What about the “AKT activation, EGFR (p-Akt over Akt)” value (Log [Comp 21] (M) -6.3) of the same compound?
**A.** 94.5153 percent compared to DMSO and 100.709 percent compared to DMSO and 97.0491 percent compared to DMSO

**Q.** And the “AKT activation, EGFR (p-Akt over Akt)” value (Log [Comp 21] (M) -7)?
**A.** 104.373 percent compared to DMSO and 93.1512 percent compared to DMSO and 83.461 percent compared to DMSO
